Measured values from patent US20250288571A1 (Nested Therapeutics, Inc., priority 2024, published 2025).
Values joined by “and” are separate entries in the source; they are usually repeats but may differ in a detail not shown here. Equal values may be shown once.

Columns and labels:
pMEK [1] = test: pMEK AlphaLISA (MEK1 pS218/222), HCT116 cells, EGF stimulated; type: cell-based; conditions: Homo sapiens, HCT-116, 2 h compound, EGF 30 ng/ml 15 min
Description: (§1) Determination of pMEK IC50s
(§2) A549 cells were cultured in F12K/10% FBS media (ATCC CAT #21127022) and were seeded at 10000 cells/well and HCT116 cells were cultured in McCoy's 5A/10% FBS media (Gibco Cat #30-2007) were seeded at 15000 cells/well in 384 microplates (Corning CAT #3765). Cells were incubated overnight in a TC incubator. Compounds were serially diluted and added to cells for 2 h in a TC incubator. At the end of the 2 h EGF (R&D Systems 236-EG-200) was added at a final EGF concentration of 30 ng/ml and incubated for 15 minutes at 37° C. in a TC incubator. AlphaLisa (Perkin Elmer) was performed according to manufacturer's instructions (Perkin Elmer CAT #ALPHA.SF ULTRA MEK1 PS218/222). The percent (%) inhibition at each concentration of compound is calculated based on and relative to the AlphaLISA signal in the HPE and ZPE control wells contained within each assay plate. The ZPE control wells contain cells and DMSO as 0% inhibition, and the HPE control wells only contain cells and control compound (Sellekchem Staurosporin CAT #S1421) as 100% inhibition.

pMEK [2] = test: pMEK AlphaLISA (MEK1 pS218/222), A549 cells, EGF stimulated; type: cell-based; conditions: Homo sapiens, 2 h compound, EGF 30 ng/ml 15 min
Description: as §1, §2

IPC298 cells = test: IPC298 Cell Titer Glow assay (CTG); conditions: for IC50: Homo sapiens, IPC-298, 72 h, read-out: CTG IC50 (nM) Cell Line: IPC298.2
HCT116 cells = test: HCT116 Cell Titer Glow assay (CTG); conditions: for IC50 / viability at 1000 µM: Homo sapiens, HCT-116, 72 h; for IC50: read-out: CTG IC50 (nM) Cell Line: HCT116.20; for viability at 1000 µM: read-out: CTG % cell viability 1000 uM HCT116.20, HCT116 cells, 72 hours, 1000 uM
pERK Thr202/Tyr204 = test: pERK HTRF detection of pERK Thr202/Tyr204, HCT116 cells; type: cell-based; conditions: Homo sapiens, HCT-116, 2 h compound, numeric value
Description: pERK: Detection of pERK Thr202/Tyr204
A549 cultured in F-12K/10% FBS were seeded at 10000 cells/well, and HCT116 cultured in McCoy's 5A/10% FBS were seeded at 15000 cells/well cells into Corning 384-well plates, respectively. Cells were incubated overnight in a TC incubator. Compounds were serially diluted and added to cells for 2 h in a TC incubator. Cells were then lysed according to manufacture protocol (Cisbio CAT #: 64AERPEG). Cell lysate was mixed with phospho-ERK (Thr202/Tyr204) antibody solution at 5:1 (v:v). Lysate and antibody mixture were incubated overnight at room temperature. HTRF signal was read at two different wavelengths (665 nm and 620 nm) on a compatible HTRF reader.

[3] = percent cells remaining after treatment

Row | IC50 (pMEK [1]) | IC50 (pMEK [2]) | IC50 (HCT116 cells) | IC50 (pMEK [1]; numeric value) | IC50 (pERK Thr202/Tyr204) | Structure (SMILES) | IC50 (IPC298 cells) | viability at 1000 µM (HCT116 cells; [3]) | CTG % cell viability 100 uM IPC298.2 (IPC298 cells; IPC298 cells, 72 hours, 100 uM, percent cells remaining after treatment) | CTG % cell viability 1000 uM HCT116.20 (HCT116 cells; HCT116 cells, 72 hours, 1000 uM, percent cells remaining after treatment)
1 | < 10 nM | < 10 nM |  |  |  | CNS(=O)(=O)Nc1nccc(Cc2cncc(Nc3ccc(F)cc3F)c2C)c1F [Example 7, N-(2,4-difluorophenyl)-5-({3-fluoro-2-[(methylsulfamoyl)amino]pyridin-4-yl}methyl)-4-methylpyridin-3-amine] |  |  |  | 
2 | < 10 nM | < 10 nM |  |  |  | CNS(=O)(=O)Nc1nccc(Cc2cncc(Nc3ccc(C(F)(F)F)cc3F)c2C)c1F [Example 8, 5-({3-fluoro-2-[(methylsulfamoyl)amino]pyridin-4-yl}methyl)-N-[2-fluoro-4-(trifluoromethyl)phenyl]-4-methylpyridin-3-amine] |  |  |  | 
3 | < 10 nM | < 10 nM |  |  |  | CNS(=O)(=O)Nc1nccc(Cc2c[n+]([O-])cc(Nc3ccc(Cl)cc3F)c2C)c1F [Example 14, 3-[(4-chloro-2-fluorophenyl)amino]-5-({3-fluoro-2-[(methylsulfamoyl)amino]pyridin-4-yl}methyl)-4-methylpyridin-1-ium-1-olate] |  |  |  | 
4 | < 10 nM | < 10 nM | 10 to 100 nM |  |  | CNS(=O)(=O)Nc1nccc(Oc2cncc(Nc3ccc(Cl)cc3F)c2C)c1F [Example 15, N-(4-chloro-2-fluorophenyl)-5-({3-fluoro-2-[(methylsulfamoyl)amino]pyridin-4-yl}oxy)-4-methylpyridin-3-amine] | < 10 nM |  |  | 
5 | 10 to 100 nM | 10 to 100 nM | > 1000 nM |  |  | CNS(=O)(=O)Nc1nccc(C(C)c2cncc(Nc3ccc(Cl)cc3F)c2C)c1F (stereo not drawn) [Example 16] | 100 to 500 nM | 36.5% |  | 
6 | > 1000 nM | 500 to 1000 nM | > 1000 nM |  |  | Cc1c(Cc2ccnc(S(C)(=O)=O)c2F)cncc1Nc1ccc(F)cc1F [Example 17, N-(2,4-difluorophenyl)-5-[(3-fluoro-2-methanesulfonylpyridin-4-yl)methyl]-4-methylpyridin-3-amine] | > 1000 nM | 68.2% | 72.73; % and 98.52% | 83.74%
7 | < 10 nM | < 10 nM | 100 to 500 nM |  |  | CNS(=O)(=O)Nc1nccc(Cc2cncc(Nc3ccc(Cl)cc3F)c2)c1F [Example 18, 4-[[5-(4-chloro-2-fluoro-anilino)-3-pyridyl]methyl]-3-fluoro-N-(methylsulfamoyl)pyridin-2-amine] | 10 to 100 nM |  |  | 
8 | > 1000 nM | > 1000 nM |  |  |  | Cc1c(Cc2ccc(S(C)(=O)=O)cc2F)cncc1Nc1ccc(Cl)cc1F [Example 20, N-(4-chloro-2-fluoro-phenyl)-5-[(2-fluoro-4-methylsulfonyl-phenyl)methyl]-4-methyl-pyridin-3-amine] |  |  |  | 
9 | 10 to 100 nM | 10 to 100 nM | > 1000 nM |  |  | CNS(=O)(=O)Nc1nccc(Cc2cncc(Nc3ccc(Cl)cc3F)n2)c1F [Example 21, N-(4-chloro-2-fluoro-phenyl)-6-[[3-fluoro-2-(methylsulfamoylamino)-4-pyridyl]methyl]pyrazin-2-amine] | 500 to 1000 nM |  |  | 
10 | < 10 nM | < 10 nM | 100 to 500 nM |  |  | Cc1c(Cc2ccnc([S+](C)[O-])c2F)cncc1Nc1ccc(Br)cc1F (stereo not drawn) [Example 22] | 10 to 100 nM |  |  | 
11 | < 10 nM | < 10 nM | 10 to 100 nM |  |  | CNS(=O)(=O)Nc1nccc(Cc2cncc(Nc3ccc(OC)cc3F)c2C)c1F [Example 23, 5-({3-fluoro-2-[(methylsulfamoyl)amino]pyridin-4-yl}methyl)-N-(2-fluoro-4-methoxyphenyl)-4-methylpyridin-3-amine] |  |  |  | 
12 |  | 10 to 100 nM | 100 to 500 nM | > 100 nM |  | CNS(=O)(=O)Nc1nccc(Cc2cncc(OC)c2C)c1F [Example 24, ({3-fluoro-4-[(5-methoxy-4-methylpyridin-3-yl)methyl]pyridin-2-yl}sulfamoyl)(methyl)amine] | < 10 nM |  |  | 
13 | > 1000 nM | > 1000 nM |  |  |  | CNS(=O)(=O)Nc1ccc(Cc2cncc(Nc3ccc(Cl)cc3F)c2C)cc1OC [Example 25, N-(4-chloro-2-fluoro-phenyl)-5-[[3-methoxy-4-(methylsulfamoylamino)phenyl]methyl]-4-methyl-pyridin-3-amine] |  |  |  | 
14 | < 10 nM | < 10 nM | 100 to 500 nM |  |  | CNS(=O)(=O)Nc1nccc(Cc2cncc(Nc3ccc(Cl)cc3F)c2F)c1F [Example 26, 4-[[5-(4-chloro-2-fluoro-anilino)-4-fluoro-3-pyridyl]methyl]-3-fluoro-N-(methylsulfamoyl)pyridin-2-amine] | 10 to 100 nM |  |  | 
15 | < 10 nM | < 10 nM | 500 to 1000 nM |  |  | CNS(=O)(=O)Nc1nccc(Cc2cncc(Oc3ccc(Cl)cn3)c2C)c1F [Example 27, {[4-({5-[(5-chloropyridin-2-yl)oxy]-4-methylpyridin-3-yl}methyl)-3-fluoropyridin-2-yl]sulfamoyl}(methyl)amine] | 10 to 100 nM |  |  | 
16 | 10 to 100 nM | 10 to 100 nM | > 1000 nM |  |  | Cc1c(Cc2ccnc(S(C)(=O)=O)c2F)cncc1Nc1ccc(Cl)cc1F [Example 28, N-(4-chloro-2-fluorophenyl)-5-[(3-fluoro-2-methanesulfonylpyridin-4-yl)methyl]-4-methylpyridin-3-amine] | 10 to 100 nM |  |  | 
17 | 10 to 100 nM | 10 to 100 nM |  |  |  | CNS(=O)(=O)Nc1nccc(Cc2cncc(Oc3ncc(Cl)cc3F)c2C)c1F [Example 29, {[4-({5-[(5-chloro-3-fluoropyridin-2-yl)oxy]-4-methylpyridin-3-yl}methyl)-3-fluoropyridin-2-yl]sulfamoyl}(methyl)amine] |  |  |  | 
18 | 10 to 100 nM | 10 to 100 nM |  |  |  | C=CCOc1cncc(Cc2ccnc(NS(=O)(=O)NC)c2F)c1C [Example 30, 4-[(5-allyloxy-4-methyl-3-pyridyl)methyl]-3-fluoro-N-(methylsulfamoyl)pyridin-2-amine] |  |  |  | 
19 | > 1000 nM | > 1000 nM |  |  |  | CNS(=O)(=O)Nc1nccc(Cc2cncc(-c3ncccc3F)c2C)c1F [Example 31, 3-fluoro-4-[[5-(3-fluoro-2-pyridyl)-4-methyl-3-pyridyl]methyl]-N-(methylsulfamoyl)pyridin-2-amine] |  |  |  | 
20 | > 1000 nM | > 1000 nM |  |  |  | CNS(=O)(=O)Nc1nccc(Cc2cncc(-c3ncc(Cl)cc3F)c2C)c1F [Example 32, 4-[[5-(5-chloro-3-fluoro-2-pyridyl)-4-methyl-3-pyridyl]methyl]-3-fluoro-N-(methylsulfamoyl)pyridin-2-amine] |  |  |  | 
21 | > 1000 nM | 500 to 1000 nM |  |  |  | CNS(=O)(=O)Nc1nccc(Cc2cncc(OCc3ncccc3F)c2C)c1F [Example 34, {[3-fluoro-4-({5-[(3-fluoropyridin-2-yl)methoxy]-4-methylpyridin-3-yl}methyl)pyridin-2-yl]sulfamoyl}(methyl)amine] |  |  |  | 
22 | < 10 nM | < 10 nM | < 10 nM |  |  | CNS(=O)(=O)Nc1nccc(Cc2cncc(Nc3ccc(Cl)cc3OC)c2C)c1F [Example 35, 4-[[5-(4-chloro-2-methoxy-anilino)-4-methyl-3-pyridyl]methyl]-3-fluoro-N-(methylsulfamoyl)pyridin-2-amine] | < 10 nM |  |  | 
23 | < 10 nM | < 10 nM |  |  |  | CNS(=O)(=O)Nc1nccc(Cc2cncc(N(C)c3ccc(Cl)cc3F)c2C)c1F [Example 36, N-(4-chloro-2-fluorophenyl)-5-({3-fluoro-2-[(methylsulfamoyl)amino]pyridin-4-yl}methyl)-N,4-dimethylpyridin-3-amine] |  |  |  | 
24 | < 10 nM | < 10 nM | 10 to 100 nM |  | 0.362 nM | CNS(=O)(=O)Nc1nccc(Cc2cncc(Nc3ccc(Cl)cc3F)c2OC)c1F [Example 37, N-(4-chloro-2-fluorophenyl)-5-({3-fluoro-2-[(methylsulfamoyl)amino]pyridin-4-yl}methyl)-4-methoxypyridin-3-amine] | < 10 nM |  |  | 
